Data from ChEMBL document CHEMBL5608244, “Preclinical Evaluation of Dihydropyrazole-Cored Positron Emission Tomography (PET) Ligands for Imaging of Receptor-Interacting Serine/Threonine Protein Kinase 1 (RIPK1) in the Brain” (J Med Chem, 2024).

Columns and labels:
[1] = Drug uptake in thalamus of ICR mouse brain at 0.5 to 10 uM incubated for 30 mins by Phosphor Imager analysis; format: ADME, tissue-based; settings: 0.5 h, dose 0.5-10 µM
[2] = Drug metabolism in mouse plasma assessed as polar radiometabolites accumulation at 13.5 MBq, iv measured after 30 mins by HPLC analysis; format: ADME, organism-based; settings: 0.5 h
[3] = Biodistribution in ICR mouse brain at 0.74 MBq, iv measured after 30 mins by automatic gamma counter analysis; format: ADME, organism-based; settings: in vivo, 0.5 h
[4] = Biodistribution in ICR mouse stomach at 0.74 MBq, iv measured after 2 mins by automatic gamma counter analysis; format: ADME, organism-based; settings: in vivo
[5] = Biodistribution in ICR mouse blood at 0.74 MBq, iv measured after 2 mins by automatic gamma counter analysis; format: ADME, organism-based; settings: in vivo
[6] = Biodistribution in ICR mouse small intestine at 0.74 MBq, iv measured after 10 mins by automatic gamma counter analysis; format: ADME, organism-based; settings: in vivo
[7] = Biodistribution in ICR mouse stomach at 0.74 MBq, iv measured after 60 mins by automatic gamma counter analysis; format: ADME, organism-based; settings: in vivo, 1 h
[8] = Biodistribution in ICR mouse lung at 0.74 MBq, iv measured after 60 mins by automatic gamma counter analysis; format: ADME, organism-based; settings: in vivo, 1 h
[9] = Drug uptake in medulla of ICR mouse brain at 0.5 to 10 uM incubated for 30 mins by Phosphor Imager analysis; format: ADME, tissue-based, Medulla of organ; settings: 0.5 h, dose 0.5-10 µM
[10] = Biodistribution in ICR mouse brain at 0.74 MBq, iv measured after 10 mins by automatic gamma counter analysis; format: ADME, organism-based; settings: in vivo
[11] = Biodistribution in ICR mouse kidneys at 0.74 MBq, iv measured after 30 mins by automatic gamma counter analysis; format: ADME, organism-based, Kidney; settings: in vivo, 0.5 h
[12] = Biodistribution in ICR mouse pancreas at 0.74 MBq, iv measured after 30 mins by automatic gamma counter analysis; format: ADME, organism-based; settings: in vivo, 0.5 h
[13] = Drug metabolism in mouse brain assessed as polar radiometabolites accumulation at 13.5 MBq, iv measured after 30 mins by HPLC analysis; format: ADME, organism-based; settings: in vivo, 0.5 h
[14] = Biodistribution in ICR mouse spleen at 0.74 MBq, iv measured after 60 mins by automatic gamma counter analysis; format: ADME, organism-based; settings: in vivo, 1 h
[15] = Biodistribution in ICR mouse pancreas at 0.74 MBq, iv measured after 10 mins by automatic gamma counter analysis; format: ADME, organism-based; settings: in vivo
[16] = Biodistribution in ICR mouse kidneys at 0.74 MBq, iv measured after 60 mins by automatic gamma counter analysis; format: ADME, organism-based, Kidney; settings: in vivo, 1 h
[17] = Biodistribution in ICR mouse small intestine at 0.74 MBq, iv measured after 30 mins by automatic gamma counter analysis; format: ADME, organism-based; settings: in vivo, 0.5 h
[18] = Biodistribution in ICR mouse blood at 0.74 MBq, iv measured after 10 mins by automatic gamma counter analysis; format: ADME, organism-based; settings: in vivo
[19] = Drug metabolism in mouse brain assessed as parent compound remaining at 13.5 MBq, iv measured after 30 mins by HPLC analysis; format: ADME, organism-based; settings: read-out: Activity
[20] = Biodistribution in ICR mouse blood at 0.74 MBq, iv measured after 30 mins by automatic gamma counter analysis; format: ADME, organism-based; settings: in vivo, 0.5 h
[21] = Drug uptake in thalamus of ICR mouse brain assessed as reduction in radioactivity incubated for 30 mins in presence of 0.5 uM of GSK'547 by Phosphor Imager analysis; format: ADME, tissue-based; parameters: scale not given: the % may be the effect or the level left; settings: 0.5 h
[22] = Biodistribution in ICR mouse assessed as decrease in drug accumulation in small intestine at 0.74 MBq, iv pretreated with 1-(5-(3-fluorophenyl)-4,5-dihydro-1H-pyrazol-1-yl)-2,2-dimethylpropan-1-one followed by compound administration measured after 10 mins by automatic gamma counter analysis; format: ADME, organism-based; parameters: scale not given: the % may be the effect or the level left; settings: in vivo
[23] = Biodistribution in ICR mouse bone at 0.74 MBq, iv measured after 2 mins by automatic gamma counter analysis; format: ADME, organism-based, Bone element; settings: in vivo
[24] = Biodistribution in ICR mouse small intestine at 0.74 MBq, iv measured after 2 mins by automatic gamma counter analysis; format: ADME, organism-based; settings: in vivo
[25] = Biodistribution in ICR mouse pancreas at 0.74 MBq, iv measured after 2 mins by automatic gamma counter analysis; format: ADME, organism-based; settings: in vivo
[26] = Drug uptake in brain of TNF-alpha-induced SIRS Sprague-Dawley rat model at 9.9 to 14.8 MBq, iv measured for 5 mins by PET analysis; format: ADME, organism-based; settings: in vivo, dose 9.9-14.8 MBq
[27] = Biodistribution in ICR mouse liver at 0.74 MBq, iv measured after 10 mins by automatic gamma counter analysis; format: ADME, organism-based; settings: in vivo
[28] = Biodistribution in ICR mouse heart at 0.74 MBq, iv measured after 2 mins by automatic gamma counter analysis; format: ADME, organism-based; settings: in vivo
[29] = Biodistribution in ICR mouse assessed as decrease in drug accumulation in bone with marrow at 0.74 MBq, iv pretreated with GSK'547 followed by compound administration measured after 10 mins by automatic gamma counter analysis; format: ADME, organism-based; parameters: scale not given: the % may be the effect or the level left; settings: in vivo
[30] = Drug uptake in thalamus of ICR mouse brain assessed as reduction in radioactivity at 0.5 to 10 uM incubated for 30 mins in presence of 10 uM of 1-(5-(3-fluorophenyl)-4,5-dihydro-1H-pyrazol-1-yl)-2,2-dimethylpropan-1-one by Phosphor Imager analysis; format: ADME, tissue-based; parameters: scale not given: the % may be the effect or the level left; settings: 0.5 h, dose 0.5-10 µM
[31] = Biodistribution in ICR mouse assessed as drug accumulation in bone without marrow at 0.74 MBq, iv pretreated with GSK'547 followed by compound administration measured after 10 mins by automatic gamma counter analysis; format: ADME, organism-based; settings: in vivo
[32] = Drug uptake in thalamus of ICR mouse brain assessed as reduction in radioactivity incubated for 30 mins in presence of GSK'547 by Phosphor Imager analysis; format: ADME, tissue-based; settings: 0.5 h
[33] = Biodistribution in ICR mouse assessed as decrease in drug accumulation in bone with marrow at 0.74 MBq, iv pretreated with 1-(5-(3-fluorophenyl)-4,5-dihydro-1H-pyrazol-1-yl)-2,2-dimethylpropan-1-one followed by compound administration measured after 10 mins by automatic gamma counter analysis; format: ADME, organism-based; parameters: scale not given: the % may be the effect or the level left; settings: in vivo
[34] = Drug uptake in thalamus of ICR mouse brain assessed as reduction in radioactivity incubated for 30 mins in presence of 1-(5-(3-fluorophenyl)-4,5-dihydro-1H-pyrazol-1-yl)-2,2-dimethylpropan-1-one by Phosphor Imager analysis; format: ADME, tissue-based; settings: 0.5 h, dose 0.5-10 µM
[35] = Retention time of the compound by HPLC method; format: physicochemical
[36] = Biodistribution in ICR mouse muscle at 0.74 MBq, iv measured after 2 mins by automatic gamma counter analysis; format: ADME, organism-based, Muscle tissue; settings: in vivo
[37] = Biodistribution in ICR mouse spleen at 0.74 MBq, iv measured after 30 mins by automatic gamma counter analysis; format: ADME, organism-based; settings: in vivo, 0.5 h
[38] = Biodistribution in ICR mouse assessed as drug accumulation in liver at 0.74 MBq, iv pretreated with GSK'547 followed by compound administration measured after 10 mins by automatic gamma counter analysis; format: ADME, organism-based; settings: in vivo
[39] = Drug uptake in thalamus of ICR mouse brain assessed as reduction in radioactivity incubated for 30 mins in presence of 0.5 uM of 1-(5-(3-fluorophenyl)-4,5-dihydro-1H-pyrazol-1-yl)-2,2-dimethylpropan-1-one by Phosphor Imager analysis; format: ADME, tissue-based; parameters: scale not given: the % may be the effect or the level left; settings: 0.5 h
[40] = Biodistribution in ICR mouse assessed as drug accumulation in bone without marrow at 0.74 MBq, iv pretreated with 1-(5-(3-fluorophenyl)-4,5-dihydro-1H-pyrazol-1-yl)-2,2-dimethylpropan-1-one followed by compound administration measured after 10 mins by automatic gamma counter analysis; format: ADME, organism-based; settings: in vivo

Q: With `CC(C)(C)C(=O)N1N=CCC1c1cccc([18F])c1` (stereo not given) as the compound, how does the Drug uptake [1] read?
A: The Drug uptake was “Active”.

Q: And the Drug metabolism [2]?
A: The Drug metabolism was “Metabolite_Detected”.

Q: And the Drug uptake [3]?
A: Its Drug uptake is 0.48 % ID/g.

Q: And the Drug uptake [4]?
A: The Drug uptake was 0.9 % ID/g.

Q: And the Drug uptake [5]?
A: The Drug uptake was 4.79 % ID/g.

Q: And the Drug uptake [6]?
A: The Drug uptake was 12.64 % ID/g.

Q: And the Drug uptake [7]?
A: Its Drug uptake is 0.18 % ID/g.

Q: What about the Drug uptake [8] of the same compound?
A: The Drug uptake was 1.03 % ID/g.

Q: What about the Drug uptake [9] of the same compound?
A: The Drug uptake was “Active”.

Q: What about the Drug uptake [10] of the same compound?
A: The Drug uptake was 1.36 % ID/g.

Q: And the Drug uptake [11]?
A: The Drug uptake was 9.68 % ID/g.

Q: What about the Drug uptake [12] of the same compound?
A: Its Drug uptake is 1.51 % ID/g.

Q: What about the Drug metabolism [13] of the same compound?
A: Its Drug metabolism is “Metabolite_Detected”.

Q: What about the Drug uptake [14] of the same compound?
A: The Drug uptake was 0.41 % ID/g.

Q: What about the Drug uptake [15] of the same compound?
A: The Drug uptake was 3.07 % ID/g.

Q: And the Drug uptake [16]?
A: Its Drug uptake is 3.95 % ID/g.

Q: What about the Drug uptake [17] of the same compound?
A: Its Drug uptake is 22.56 % ID/g.

Q: And the Drug uptake [18]?
A: The Drug uptake was 4.92 % ID/g.

Q: What about the remaining at 0.5 h [19] of the same compound?
A: The remaining at 0.5 h was 22.4%.

Q: And the Drug uptake [20]?
A: Its Drug uptake is 2.96 % ID/g.

Q: What about the Activity [21] of the same compound?
A: Its Activity is ~ 5%.

Q: And the Activity [22]?
A: Its Activity is 25.3%.

Q: What about the Drug uptake [23] of the same compound?
A: The Drug uptake was 3.3 % ID/g.

Q: What about the Drug uptake [24] of the same compound?
A: Its Drug uptake is 5.07 % ID/g.

Q: What about the Drug uptake [25] of the same compound?
A: The Drug uptake was 6.65 % ID/g.

Q: And the Drug uptake [26]?
A: Its Drug uptake is “Active”.

Q: What about the Drug uptake [27] of the same compound?
A: The Drug uptake was 11.39 % ID/g.

Q: What about the Drug uptake [28] of the same compound?
A: Its Drug uptake is 6.8 % ID/g.

Q: What about the Activity [29] of the same compound?
A: Its Activity is 11.9%.

Q: And the Activity [30]?
A: Its Activity is ~ 26%.

Q: And the Drug uptake [31]?
A: Its Drug uptake is 12.1%.

Q: What about the Activity [32] of the same compound?
A: The Activity was “Dose-Dependent Effect”.

Q: What about the Activity [33] of the same compound?
A: Its Activity is 14.8%.

Q: And the Activity [34]?
A: Its Activity is “Dose-Dependent Effect”.

Q: And the Retention_time [35]?
A: Its Retention_time is 21.84 min.

Q: What about the Drug uptake [36] of the same compound?
A: Its Drug uptake is 3.7 % ID/g.

Q: And the Drug uptake [37]?
A: Its Drug uptake is 0.91 % ID/g.

Q: What about the Drug uptake [38] of the same compound?
A: Its Drug uptake is 23.2%.

Q: What about the Activity [39] of the same compound?
A: Its Activity is ~ 5%.

Q: And the Drug uptake [40]?
A: Its Drug uptake is 21%.
